This series concerns the target T1, hERG potassium channel (Homo sapiens, UniProt Q12809).
T1 construct: Eurofins
The experiment in a line: hERG channel binding assay ([3H]dofetilide displacement). The conditions noted are these: for inhibition at 10 µM: human, probe [3H]dofetilide. Here is the method:
The evaluation of the binding of the compounds to the human hERG potassium channel was carried out as described previously (Eurofins).
Since the blocking of the human potassium channel hERG channel may be responsible for cardiac fibrillation leading to cardiac arrest and death of the patient, the binding of the 3 molecules SG6163F, VP331 and LOPA87 to this receptor was evaluated.
On the technique in general: Block of hERG is tested as a sign of cardiac risk.

Where two headings read alike, the source gives them in different places.

T1 sequence (Q12809 whole entry): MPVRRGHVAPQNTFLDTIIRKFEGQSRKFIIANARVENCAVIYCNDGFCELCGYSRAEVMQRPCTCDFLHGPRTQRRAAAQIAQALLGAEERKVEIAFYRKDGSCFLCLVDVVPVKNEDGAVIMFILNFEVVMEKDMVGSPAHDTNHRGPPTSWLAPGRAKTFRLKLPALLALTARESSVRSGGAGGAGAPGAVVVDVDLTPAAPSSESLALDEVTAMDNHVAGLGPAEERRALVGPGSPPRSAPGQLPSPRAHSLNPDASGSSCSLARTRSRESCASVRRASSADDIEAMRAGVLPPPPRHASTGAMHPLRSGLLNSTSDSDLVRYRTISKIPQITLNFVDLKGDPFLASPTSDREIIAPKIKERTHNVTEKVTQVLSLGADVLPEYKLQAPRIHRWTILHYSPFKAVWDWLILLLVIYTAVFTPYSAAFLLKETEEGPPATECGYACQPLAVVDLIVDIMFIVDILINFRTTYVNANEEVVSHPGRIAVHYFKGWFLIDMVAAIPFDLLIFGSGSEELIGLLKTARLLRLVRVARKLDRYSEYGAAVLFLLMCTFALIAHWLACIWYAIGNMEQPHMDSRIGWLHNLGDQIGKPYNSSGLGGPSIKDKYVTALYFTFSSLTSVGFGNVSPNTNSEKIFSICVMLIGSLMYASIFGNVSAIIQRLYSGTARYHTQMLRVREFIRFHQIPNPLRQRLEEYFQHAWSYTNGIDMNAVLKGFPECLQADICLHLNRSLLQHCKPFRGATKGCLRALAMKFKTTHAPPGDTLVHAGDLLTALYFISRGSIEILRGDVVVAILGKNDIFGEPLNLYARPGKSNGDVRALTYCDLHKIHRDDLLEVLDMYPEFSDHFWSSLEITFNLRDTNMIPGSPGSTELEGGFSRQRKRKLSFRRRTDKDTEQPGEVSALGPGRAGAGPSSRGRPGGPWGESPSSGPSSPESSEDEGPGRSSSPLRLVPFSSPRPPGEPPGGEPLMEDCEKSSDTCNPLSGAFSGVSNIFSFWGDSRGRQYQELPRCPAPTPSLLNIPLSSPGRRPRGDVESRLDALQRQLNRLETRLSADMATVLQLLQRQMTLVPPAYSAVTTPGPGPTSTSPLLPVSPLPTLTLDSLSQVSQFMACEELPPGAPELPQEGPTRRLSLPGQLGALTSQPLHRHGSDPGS

Take `O=C1NC(c2ccccc2)=N/C1=C\c1cc2ccccc2c2ccccc12` [SG6163F]: the inhibition at 10 µM reads like this: (inhibition of tritiated dofetilide binding, only values >50% considered effective, read-out: % inhibit 1st assay) 40.5%; (inhibition of tritiated dofetilide binding, only values >50% considered effective, read-out: % inhibit 2nd assay) 36.6%; (mean of two independent measurements, read-out: % inhibit Mean) 38.5%. Further, the “binding to the hERG channel” value (inhibition of specific binding of [3H]dofetilide in vitro) is “negligible”.

The record behind these values is patent US20240226066A1, “CARDIOPROTECTION BY AUTOPHAGY INDUCTION AND METABOLIC REPROGRAMMING” (UNIVERSITE PARIS-SACLAY, priority 2021, published 2024).
